Here are results for 7 compounds from ChEMBL document CHEMBL1201862, “PubChem BioAssay data set” (2004).

The structures appear in SMILES notation.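 48-hour exposure; five concentrations; linearly interpolated endpoints. GI50 marks 50% less growth.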 The source made the active and inactive calls. Cut-off read from the data, not from the text of the source: active = GI50 up to about 1.1 µM and inactive = higher. Some results are limits rather than exact numbers.

Some test systems named below: MDA-MB-231; SK-MEL-2; RXF 393; DU-145; KM12; K562; Malme-3M; MDA-N; MCF7; U-251; HT-29; SNB-19; SF-295; NCI-H460; IGROV-1; SNB-75; HCT-116; M14; BT-549; A498.
What all share (experiment): NCI-60 cell line screen, 48 h

Turning to `Cc1c2ccccc2c(CSC(=N)N)c2ccccc12`, the GI50 is 0.276 µM (active) with MDA-MB-231; 0.192 µM (active) with SK-MEL-2; 0.0715 µM (active) with RXF 393; 0.084 µM (active) in the test with DU-145; 0.218 µM (active) in the test on KM12; 0.2 µM (active) in the test on K562. The GI50 was 0.149 µM (active) in the test on Malme-3M; 0.175 µM (active) with MDA-N; 0.104 µM (active) in the test on MCF7; 0.176 µM (active) with U-251; 0.163 µM (active) in the test with HT-29; 0.228 µM (active) in the test on SNB-19. Further, the GI50 in the test with SF-295 is 0.271 µM (active); with NCI-H460, 0.074 µM (active); with IGROV-1, 0.312 µM (active); in the test on SNB-75, 0.178 µM (active); in the test with HCT-116, 0.189 µM (active); in the test on M14, 0.211 µM (active). Moreover, the GI50 was 0.902 µM (active) with BT-549 and 0.19 µM (active) in the test with A498.

`O=C1C=CC(=O)c2c1ccc1c3ccccc3n(CCCCCn3c4ccccc4c4ccc5c(c43)C(=O)C=CC5=O)c21`: the GI50 with MDA-MB-231 is 21.2 µM (inactive); in the test with SK-MEL-2, 23.3 µM (inactive); in the test with RXF 393 it was 5.68 µM (inactive); in the test with DU-145, > 55.7 µM (inactive); in the test on KM12, > 100 µM (inactive); in the test on K562, 2.06 µM (inactive). For the same compound, the GI50 with Malme-3M was 16.7 µM (inactive); in the test on MDA-N it was 20.3 µM (inactive); in the test on MCF7, 19.7 µM (inactive); in the test on U-251, 20 µM (inactive); in the test with HT-29, 32 µM (inactive); with SNB-19 it was 41.2 µM (inactive). Besides, the GI50 is > 100 µM (inactive) with SF-295; > 78 µM (inactive) with NCI-H460; 14.7 µM (inactive) in the test on IGROV-1; 14.9 µM (inactive) with SNB-75; 12.8 µM (inactive) in the test on HCT-116; 20.1 µM (inactive) in the test on M14. Besides, the figures for the GI50 in the test on BT-549 and in the test on A498 were 32.4 µM (inactive) and 54.5 µM (inactive), respectively.

Regarding `COC(=O)C(/C(=N\O)C(=O)Nc1cccc(Cl)c1C)c1cnc2ccccc2n1` (stereo not given), the GI50 with MDA-MB-231 is > 100 µM (inactive); in the test on SK-MEL-2 it was > 100 µM (inactive); with RXF 393, 92.9 µM (inactive); with DU-145 it was > 100 µM (inactive); with KM12 it was > 100 µM (inactive); in the test with K562, > 100 µM (inactive). The GI50 in the test on Malme-3M, in the test on MDA-N, with MCF7, in the test on U-251, in the test with HT-29 and in the test on SNB-19 was > 100 µM (inactive) each time. Besides, the GI50 with SF-295, with NCI-H460, with IGROV-1, in the test with SNB-75, with HCT-116 and with M14 was > 100 µM (inactive) each time. Further, the GI50 with BT-549 and in the test on A498 was > 100 µM (inactive) throughout.

On to `CNNC1=NS(=O)(=O)c2cc(C(=O)OC)c(Cl)cc2S1`, for which the GI50 in the test with MDA-MB-231, with SK-MEL-2, in the test on RXF 393, in the test on DU-145, with KM12 and in the test with K562 was > 10 µM (inactive) throughout. Further, the GI50 in the test on Malme-3M, in the test with MDA-N, in the test on MCF7, with U-251, in the test on HT-29 and in the test with SNB-19 was > 10 µM (inactive) each time. The GI50 with SF-295, in the test on NCI-H460, with IGROV-1, in the test with SNB-75, with HCT-116 and in the test with M14 was > 10 µM (inactive) each time. In addition, the GI50 in the test with BT-549 and in the test with A498 was > 10 µM (inactive) throughout.

Consider `CC(=O)Oc1ccc(-c2nnc(-c3ccc(OC(C)=O)cc3)nn2)cc1`, for which the GI50 is > 100 µM (inactive) in the test on MDA-MB-231; > 100 µM (inactive) in the test on SK-MEL-2; > 100 µM (inactive) in the test with RXF 393; > 100 µM (inactive) with DU-145; > 100 µM (inactive) with KM12; 55.5 µM (inactive) in the test with K562. For the same compound, the GI50 in the test with Malme-3M, in the test on MDA-N, in the test on MCF7, in the test with U-251, in the test with HT-29 and with SNB-19 was > 100 µM (inactive) throughout. The GI50 in the test with SF-295, with NCI-H460, in the test on IGROV-1, in the test with SNB-75, in the test with HCT-116 and in the test with M14 was > 100 µM (inactive) in each case. The GI50 in the test with BT-549 and in the test with A498 was > 100 µM (inactive) in each case.

Consider `O=C1CC(c2ccccc2Cl)C2(C(=O)NC(=O)NC2=O)C(c2ccccc2Cl)C1` (stereo not given), for which the GI50 in the test on MDA-MB-231 was > 100 µM (inactive); in the test with SK-MEL-2 it was 81.1 µM (inactive); in the test on RXF 393, 29.5 µM (inactive); with DU-145, 39.2 µM (inactive); with KM12, > 100 µM (inactive); in the test on K562 it was > 100 µM (inactive). In addition, the GI50 was 5.05 µM (inactive) with Malme-3M; 78 µM (inactive) in the test on MDA-N; 54.1 µM (inactive) with MCF7; > 100 µM (inactive) in the test on U-251; > 100 µM (inactive) in the test on HT-29; > 100 µM (inactive) in the test with SNB-19. For the same compound, the GI50 in the test on SF-295 is > 100 µM (inactive); in the test on NCI-H460, 98.4 µM (inactive); in the test with IGROV-1, 0.104 µM (active); in the test with SNB-75 it was > 100 µM (inactive); in the test on HCT-116 it was > 100 µM (inactive); with M14 it was > 100 µM (inactive). The GI50 in the test with BT-549 and with A498 was > 100 µM (inactive) throughout.

As for `CC1(C)CCCC(C)(C2CCC3(C)C2C(O)CC2C4(C)CCC(O)C(C)(C)C4CCC23C)O1` (stereo not given), the GI50 in the test with MDA-MB-231 was 34.5 µM (inactive); in the test on SK-MEL-2, > 100 µM (inactive); in the test on RXF 393, 3.72 µM (inactive); in the test on DU-145 it was > 100 µM (inactive); in the test with KM12 it was > 100 µM (inactive); in the test on K562, 91.8 µM (inactive). Besides, the GI50 in the test on Malme-3M was 98.6 µM (inactive); with MDA-N, > 100 µM (inactive); in the test on MCF7, 61.1 µM (inactive); with U-251 it was > 100 µM (inactive); in the test on HT-29, 78.9 µM (inactive); in the test on SNB-19, 42.6 µM (inactive). Further, the GI50 in the test with SF-295 is 52.1 µM (inactive); with NCI-H460, 56.6 µM (inactive); with IGROV-1, > 100 µM (inactive); in the test on SNB-75 it was 29.4 µM (inactive); with HCT-116, > 100 µM (inactive); in the test on M14 it was > 100 µM (inactive). Moreover, the GI50 with BT-549 and in the test on A498 was > 100 µM (inactive) in each case.
